pIC50: −log10 of the molar value.

Consider 2 compounds from US7718641B2, “Pyrrolo [3,4-H] isoquinoline compounds and methods for modulating gated ion channels” (Aros Pharma ApS, priority 2005, dated 2010).

The test system of test [1] is CFA-induced inflammatory pain. Kind of test: CFA model of chronic inflammatory pain, hindpaw weight bearing (Incapacitance Tester). The class given is in vivo, rat. As to conditions: 24 h after CFA, 60 min after drug injection, n=7-8. As to the method: Rats (body weight 260-300 g) were given a s.c. injection of CFA (50% in saline, 100 μl, Sigma) into the plantar surface of the hindpaw under brief halothane anaesthesia. After 24 h, they were then tested for hindpaw weight bearing responses, as assessed using an Incapacitance Tester (Linton Instrumentation, UK), (Zhu et al., 2005). The instrument incorporates a dual channel scale that separately measures the weight of the animal distributed to each hindpaw. While normal rats distribute their body weight equally between the two hindpaws (50-50), the discrepancy of weight distribution between an injured and non-injured paw is a natural reflection of the discomfort level in the injured paw (nocifensive behavior). The rats were placed in the plastic chamber designed so that each hindpaw rested on a separate transducer pad. […] For each rat, three readings from each paw were taken and then averaged. Side-to-side weight bearing difference was calculated as the average of the absolute value of the difference between two hindpaws from three trials (right paw reading-left paw reading).
Hindpaw weight bearing responses were measured in male Sprague-Dawley rats for 2-3 days prior to being given a hindpaw injection of CFA. Twenty-four hours later baseline responses were measured and rats were then administered Compound A (5, 10 and 20 mg/kg, i.p.), Compound H (10, 30 and 60 mg/kg) and morphine (3, 6 and 10 mg/kg). Weight bearing responses were then measured at 30, 60 and 120 min after drug or vehicle injection (data shown at 60 min.). […] Data are expressed as mean +/−SEM. *P<0.05, **P<0.01, *** P<0.001 vs baseline; +++: P<0.001 vs vehicle. All groups n=7-8.

The target in the next test is T1, hASIC1a (Homo sapiens, UniProt P78348).
T1 sequence (P78348 1-528): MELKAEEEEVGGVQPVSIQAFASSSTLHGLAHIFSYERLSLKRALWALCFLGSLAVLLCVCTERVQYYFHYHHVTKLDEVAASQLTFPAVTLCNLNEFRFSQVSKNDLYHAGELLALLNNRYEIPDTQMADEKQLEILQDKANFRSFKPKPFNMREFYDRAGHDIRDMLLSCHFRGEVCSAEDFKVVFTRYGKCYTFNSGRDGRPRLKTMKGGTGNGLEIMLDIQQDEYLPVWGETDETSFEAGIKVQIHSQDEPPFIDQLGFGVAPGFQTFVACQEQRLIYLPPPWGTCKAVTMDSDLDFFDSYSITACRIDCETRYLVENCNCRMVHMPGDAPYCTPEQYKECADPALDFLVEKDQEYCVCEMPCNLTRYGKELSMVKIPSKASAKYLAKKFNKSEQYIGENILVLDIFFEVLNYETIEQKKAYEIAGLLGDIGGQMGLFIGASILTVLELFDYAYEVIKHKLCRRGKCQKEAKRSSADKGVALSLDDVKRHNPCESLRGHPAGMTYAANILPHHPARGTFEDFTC
Nature of the test: Calcium-imaging (FLIPR, Fluo-4) of acid (MES)-induced calcium response in ASIC1a expressing HEK293 cells. In kind it is cell-based. As to conditions: calcium mobilization assay, MES-induced calcium response, HEK293, n=3-7. Details: expressed in transfected cells; host or cells: HEK293. As for the experimental part: ASIC1a expressing HEK293 cells are grown in culture medium (DMEM with 10% FBS), in polystyrene culture flasks ([…]) at 37° C. in a humidified atmosphere of 5% CO2. Confluency of cells should be 80-90% on day of plating. Cells are rinsed with 10 ml of PBS and re-suspended by addition of culture medium and trituration with a 25 ml pipette.
The cells are seeded at a density of approximately 1×10^6 cells/ml (100 μl/well) in black-walled, clear bottom, 96-well plates pre-treated with 10 mg/l poly-D-lysin (75 μl/well for ≧30 min). Plated cells were allowed to proliferate for 24 h before loading with dye.
Fluo-4/AM (1 mg, Molecular Probes) is dissolved in 912 μl DMSO. The Fluo-4/AM stock solution (1 mM) is diluted with culture medium to a final concentration of 2 μM (loading solution).
The culture medium is aspirated from the wells, and 50 μl of the Fluo-4/AM loading solution is added to each well. The cells are incubated at 37° C. for 30 min.
After the loading period, the loading solution is aspirated and the cells are washed twice with 100 μl modified Assay Buffer (145 mM NaCl, 5 mM KCl, 5 mM CaCl2, 1 mM MgCl2, 10 mM HEPES, pH 7.4) to remove extracellular dye. Following the second wash, 100 μl modified Assay Buffer is added to each well and the fluorescence is measured in FLIPR™ or FlexStation™ (Molecular Devices, USA), or any other suitable equipment known to the skilled in the art.
Temperature: Room temperature (20-22° C.)
First addition: 50 μl test solution at a rate of 30 μl/sec and a starting height of 100 μl.
Second addition: 50 μl MES solution (20 mM, 5 mM final concentration) at a rate of 35 μl/sec and a starting height of 150 μl.
Reading intervals: pre-incubation—10 sec×7 and 3 sec×3 antagonist phase—3 sec×17 and 10 sec×12
Addition plates (compound test plate and MES plate) are placed on the right and left positions in the FLIPR tray, respectively. Cell plates are placed in the middle position and the ASIC1a program is effectuated. FLIPR will then take the appropriate measurements in accordance with the interval settings above. Fluorescence obtained after stimulation is corrected for the mean basal fluorescence (in modified Assay Buffer).
The MES-induced peak calcium response, in the presence of test substance, is expressed relatively to the MES response alone. Test substances that block the MES-induced calcium response are re-tested in triplicates. Confirmed hits are picked for further characterization by performing full dose-response curves to determine potency of each hit compound as represented by the IC50 values (i.e., the concentration of the test substance which inhibits 50% of the MES-induced calcium response; see, for example, FIGS. 1A, 1B and 1C, and FIGS. 13A and 13B).
Background: Calcium flux is commonly read through the fluorescence of an indicator in the cells.

The pIC50 is −log10 of the IC50, conventionally taken in molar units. Consider `COc1ccc(F)cc1-c1cc2c(c3c1CCN(C)C3)NC(=O)/C2=N/O` [Compound A, 5-(5-fluoro-2-methoxyphenyl)-6,7,8,9-tetrahydro-3-(hydroxyimino)-8-methyl-1H-pyrrolo[3,2-h]isoquinoline-2(3H)-one], for which the “CFA-induced change in hindpaw weight bearing compared with vehicle” value in test [1] is reported as “marked dose-dependent attenuation in the CFA-induced change in weight bearing”. Besides, the negative-log IC50 (pIC50) at hASIC1a was 6.70 to 7.00.
The like results for `CCN1CCc2c(-c3ccccc3)cc3c(c2C1)NC(=O)/C3=N/O` [Compound H, 5-phenyl-6,7,8,9-tetrahydro-3-(hydroxyimino)-8-ethyl-1H-pyrrolo[3,2-h]isoquinoline-2(3H)-one] were, in that order, “marked dose-dependent attenuation in the CFA-induced change in weight bearing” and 6.60 to 7.82.
